The numbers were not newly measured in patent US12640239B2, “Functional biomarkers for statin therapy in age-related macular degeneration (AMD)” (APELIOTUS TECHNOLOGIES, INC., priority 2017, dated 2026), which cites them from elsewhere.

In this series the test system is older adults with normal retinal health or AMD. To be noted: 30-day course of 50,000 international units of oral retinol, cited from earlier work.

On to `CC1=C(/C=C/C(C)=C/C=C/C(C)=C/CO)C(C)(C)CCC1` [retinol], for which the “Dark adaptation vs placebo group” value (30-day follow-up, 52 per group) is on record as “significantly faster dark adaptation than the placebo group”. For the same compound, the “Visual acuity vs placebo group” value (30-day follow-up) is recorded as “no difference in visual acuity between the groups”. The “Improvement in dark adaptation after washout” value (after an additional 30-day washout period) is “reversed to the baseline level”.
